Publication PMC9740910, “Influence of Degree of Polymerization of Low-Molecular-Weight Chitosan Oligosaccharides on the α-Glucosidase Inhibition” (Molecules, 2022)

Target: Saccharomyces cerevisiae α-glucosidase (Saccharomyces cerevisiae, UniProt P53341)
Experiment: Inhibition kinetic of α-glucosidase (Lineweaver–Burk and Michaelis–Menten fits)
Type: biochemical
Experimental: The data were fitted into both the Lineweaver–Burk and the Michaelis–Menten equation to determine the inhibition mode of the α-glucosidase for each of the COS mixtures.
The kinetic parameters, i.e., KM, Vmax, and the kinetic constants (Ki and Kii), were determined by fitting the data into the Michaelis–Menten equation [40] using the GraphPad Prism 8.0 software programs (GraphPad Inc., La Jolla, CA, USA) for Windows. The Michaelis–Menten equation, which expresses a relationship between the substrate concentration and the reaction velocity is given as follows:(3) V=Vmax [S]/ KM(1+[I]/Ki)+[S](1+[I]/Kii) where Ki represents the kinetic binding constants of the free enzymes, Kii represents the kinetic binding constant of the enzyme–substrate complex, V represents the velocity, Vmax represents the maximum velocity, KM represents the Michaelis’ constant, [S] represents the substrate concentration, and [I] represents the inhibitor concentration. The α values were calculated to determine the inhibition modes and the inhibitor binding preference.

Chain of Saccharomyces cerevisiae α-glucosidase (P53341 whole entry): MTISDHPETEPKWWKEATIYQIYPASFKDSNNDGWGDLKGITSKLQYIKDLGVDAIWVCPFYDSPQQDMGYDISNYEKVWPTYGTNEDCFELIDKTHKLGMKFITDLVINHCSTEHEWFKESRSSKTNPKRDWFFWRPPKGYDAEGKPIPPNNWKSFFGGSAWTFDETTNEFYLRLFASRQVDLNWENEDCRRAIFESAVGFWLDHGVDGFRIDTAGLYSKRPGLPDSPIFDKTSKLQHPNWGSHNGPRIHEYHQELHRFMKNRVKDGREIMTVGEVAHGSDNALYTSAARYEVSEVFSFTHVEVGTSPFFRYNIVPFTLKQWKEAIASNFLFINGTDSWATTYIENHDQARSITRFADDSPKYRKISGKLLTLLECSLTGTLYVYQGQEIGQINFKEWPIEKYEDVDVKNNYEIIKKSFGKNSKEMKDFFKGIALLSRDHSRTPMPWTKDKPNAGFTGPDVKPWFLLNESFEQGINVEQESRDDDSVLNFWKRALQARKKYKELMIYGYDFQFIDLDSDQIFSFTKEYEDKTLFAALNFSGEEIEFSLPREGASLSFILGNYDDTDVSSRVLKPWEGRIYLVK

## C[C@H]1O[C@H](O[C@H]2[C@H](O)[C@@H](O)[C@@H](O[C@H]3[C@H](O)[C@@H](O)C(O)O[C@@H]3CO)O[C@@H]2CO)[C@H](O)[C@@H](O)[C@@H]1N[C@H]1C=C(CO)[C@@H](O)[C@H](O)[C@H]1O (some centres unmarked) [Acarbose, acarbose]
  Type of Inhibition: Competitive
  α value from mixed-mode inhibition: 1.86
